From patent publication US20200283384A1, “ANTIBACTERIAL COMPOUNDS AND METHODS OF USE THEREOF” (Wayne State University, priority 2016, published 2020)
≈ marks a conversion by molar mass, not a printed value. Like-named read-outs stand apart in the source and are kept apart here.

Columns and labels:
[1] = tested on: S. aureus clinical isolates; assay: Synergistic effect with oxacillin (oxacillin MIC alone and in presence of SIC); type: cell-based, Staphylococcus aureus; settings: Staphylococcus aureus
Procedure: The synergistic effect (interaction) of HN18 and HN34 with different antibiotics against S. aureus clinical isolates was studied. The oxacillin MIC values of 8 clinical isolates of Staphylococcus aureus were determined. The oxacillin MIC of the same isolates were also determined after they were exposed to SIC of HN18, HN34 (Table 5). […] Column 2 and 3 show the oxacillin MIC value of the same isolates in presence of SIC of HN18 and HN34 respectively.

S. aureus isolates = settings: for MIC: Staphylococcus aureus
[2] = tested on: 24 strains of S. aureus (SA1-SA24); assay: Broth micro-dilution MIC against 24 strains of S. aureus; type: cell-based; settings: for MIC: Staphylococcus aureus, read-out: Compound MIC
Procedure: Compounds were tested for their anti-bacterial activity against 56 clinical isolates including 24 clinical isolates of methicillin resistant S. aureus (MRSA) and methicillin-susceptible S. aureus (MSSA), 8 strains of Enterococcus, 8 strains of Acinetobacter baumannii, 8 strains of Klebsiella pneumoniae, and 8 strains of Pseudomonas aeruginosa using a standard broth micro-dilution method as recommended by the Clinical and Laboratory Standard Institute (CLSI, M100, s23).
HN18 HN19, and HN34 were tested by a broth micro-dilution method to determine their minimal inhibitory concentration (MIC) against 24 strains of S. aureus (SA1-SA24) (Table 2). […]. Furthermore, the results for HN18 and HN34 were consistent across four repeated experiments. […]

## Cc1onc(-c2ccccc2)c1C(=O)N[C@@H]1C(=O)N2[C@@H]1SC(C)(C)[C@@H]2C(=O)O [Oxacillin, reference compound]
[1]; isolate SA3, oxacillin tested alone
  MIC: > 16 µg/mL
[1]; isolate SA4, oxacillin tested alone
  MIC: > 16 µg/mL
[1]; isolate SA5, oxacillin tested alone
  MIC: > 16 µg/mL
[1]; isolate SA9, oxacillin tested alone
  MIC: > 16 µg/mL
[1]; isolate SA10, oxacillin tested alone
  MIC: 16 µg/mL
[1]; isolate SA11, oxacillin tested alone
  MIC: 8 µg/mL
[1]; isolate SA15, oxacillin tested alone
  MIC: > 16 µg/mL
[1]; isolate SA18, oxacillin tested alone
  MIC: > 16 µg/mL
S. aureus isolates; read-out: Oxacillin MIC
  MIC: > 16 µg/mL
S. aureus isolates; isolates SA1, SA2, prior to exposure to sub-inhibitory concentration of HN18 and HN34
  Oxacillin MIC: > 16 µg/mL

## O=C(N[C@H](CO)[C@H](O)c1ccc([N+](=O)[O-])cc1)C(Cl)Cl [chloramphenicol]
S. aureus isolates; read-out: Chloramphenicol MIC
  MIC: > 40 µg/mL

## COc1cc(/C=C/C(=O)C(=Cc2ccc(F)c(F)c2)C(=O)/C=C/c2ccc(O)c(OC)c2)ccc1O [HN19, (1E,6E)-1,7-bis(4-hydroxy-3-methoxyphenyl)hepta-1,6-diene{4(3,4 difluorobenzylidene)}-3,5-dione]
[2]; 24 strains SA1-SA24, broth micro-dilution
  Effect against the panel of S. aureus strains: effective
[2]; isolate SA1, experiment I
  MIC: 1 µg/mL (≈ 2.03 µM)
[2]; isolate SA1, experiment II
  MIC: 8 µg/mL (≈ 16.2 µM)
[2]; isolate SA1, experiment III
  MIC: 8 µg/mL (≈ 16.2 µM)
[2]; isolate SA1, experiment IV
  MIC: 16 µg/mL (≈ 32.5 µM)
[2]; isolate SA2, experiment I
  MIC: 1 µg/mL (≈ 2.03 µM)
[2]; isolate SA2, experiment II
  MIC: 4 µg/mL (≈ 8.12 µM)
[2]; isolate SA2, experiment III
  MIC: 4 µg/mL (≈ 8.12 µM)
[2]; isolate SA2, experiment IV
  MIC: 8 µg/mL (≈ 16.2 µM)
[2]; isolate SA3, experiment I
  MIC: 1 µg/mL (≈ 2.03 µM)
[2]; isolate SA3, experiment II
  MIC: 4 µg/mL (≈ 8.12 µM)
[2]; isolate SA3, experiment III
  MIC: 8 µg/mL (≈ 16.2 µM)
[2]; isolate SA3, experiment IV
  MIC: 8 µg/mL (≈ 16.2 µM)
[2]; isolate SA4, experiment I
  MIC: 2 µg/mL (≈ 4.06 µM)
[2]; isolate SA4, experiment II
  MIC: 4 µg/mL (≈ 8.12 µM)
[2]; isolate SA4, experiment III
  MIC: 8 µg/mL (≈ 16.2 µM)
[2]; isolate SA4, experiment IV
  MIC: 1 µg/mL (≈ 2.03 µM)
[2]; isolate SA5, experiment I
  MIC: 0.5 µg/mL (≈ 1.02 µM)
[2]; isolate SA5, experiment II
  MIC: 2 µg/mL (≈ 4.06 µM)
[2]; isolate SA5, experiment III
  MIC: 4 µg/mL (≈ 8.12 µM)
[2]; isolate SA5, experiment IV
  MIC: 8 µg/mL (≈ 16.2 µM)
[2]; isolate SA6, experiment I
  MIC: 0.5 µg/mL (≈ 1.02 µM)
[2]; isolate SA6, experiment II
  MIC: 4 µg/mL (≈ 8.12 µM)
[2]; isolate SA6, experiment III
  MIC: 4 µg/mL (≈ 8.12 µM)
[2]; isolate SA6, experiment IV
  MIC: 8 µg/mL (≈ 16.2 µM)
[2]; isolate SA7, experiment I
  MIC: 0.5 µg/mL (≈ 1.02 µM)
[2]; isolate SA7, experiment II
  MIC: 4 µg/mL (≈ 8.12 µM)
[2]; isolate SA7, experiment III
  MIC: 4 µg/mL (≈ 8.12 µM)
[2]; isolate SA7, experiment IV
  MIC: 8 µg/mL (≈ 16.2 µM)
[2]; isolate SA8, experiment I
  MIC: 0.5 µg/mL (≈ 1.02 µM)
[2]; isolate SA8, experiment II
  MIC: 4 µg/mL (≈ 8.12 µM)
[2]; isolate SA8, experiment III
  MIC: 8 µg/mL (≈ 16.2 µM)
[2]; isolate SA8, experiment IV
  MIC: 8 µg/mL (≈ 16.2 µM)
[2]; isolate SA9, experiment I
  MIC: 0.5 µg/mL (≈ 1.02 µM)
[2]; isolate SA9, experiment II
  MIC: 0.5 µg/mL (≈ 1.02 µM)
[2]; isolate SA10, experiment I
  MIC: 2 µg/mL (≈ 4.06 µM)
[2]; isolate SA10, experiment II
  MIC: 4 µg/mL (≈ 8.12 µM)
[2]; isolate SA11, experiment I
  MIC: 1 µg/mL (≈ 2.03 µM)
[2]; isolate SA11, experiment II
  MIC: 2 µg/mL (≈ 4.06 µM)
[2]; isolate SA12, experiment I
  MIC: 2 µg/mL (≈ 4.06 µM)
[2]; isolate SA12, experiment II
  MIC: 4 µg/mL (≈ 8.12 µM)
[2]; isolate SA13, experiment I
  MIC: 1 µg/mL (≈ 2.03 µM)
[2]; isolate SA13, experiment II
  MIC: 4 µg/mL (≈ 8.12 µM)
[2]; isolate SA14, experiment I
  MIC: 2 µg/mL (≈ 4.06 µM)
[2]; isolate SA14, experiment II
  MIC: 2 µg/mL (≈ 4.06 µM)
[2]; isolate SA15, experiment I
  MIC: 1 µg/mL (≈ 2.03 µM)
[2]; isolate SA15, experiment II
  MIC: 1 µg/mL (≈ 2.03 µM)
[2]; isolate SA16, experiment I
  MIC: 0.25 µg/mL (≈ 0.508 µM)
[2]; isolate SA16, experiment II
  MIC: 0.5 µg/mL (≈ 1.02 µM)
[2]; isolate SA17, experiment I
  MIC: 2 µg/mL (≈ 4.06 µM)
[2]; isolate SA17, experiment II
  MIC: 4 µg/mL (≈ 8.12 µM)
[2]; isolate SA18, experiment I
  MIC: 1 µg/mL (≈ 2.03 µM)
[2]; isolate SA18, experiment II
  MIC: 4 µg/mL (≈ 8.12 µM)
[2]; isolate SA19, experiment I
  MIC: 1 µg/mL (≈ 2.03 µM)
[2]; isolate SA19, experiment II
  MIC: 4 µg/mL (≈ 8.12 µM)
[2]; isolate SA20, experiment I
  MIC: 1 µg/mL (≈ 2.03 µM)
[2]; isolate SA20, experiment II
  MIC: 4 µg/mL (≈ 8.12 µM)
[2]; isolate SA21, experiment I
  MIC: 2 µg/mL (≈ 4.06 µM)
[2]; isolate SA21, experiment II
  MIC: 8 µg/mL (≈ 16.2 µM)
[2]; isolate SA22, experiment I
  MIC: 2 µg/mL (≈ 4.06 µM)
[2]; isolate SA22, experiment II
  MIC: 4 µg/mL (≈ 8.12 µM)
[2]; isolate SA23, experiment I
  MIC: 2 µg/mL (≈ 4.06 µM)
[2]; isolate SA23, experiment II
  MIC: 4 µg/mL (≈ 8.12 µM)
[2]; isolate SA24, experiment I
  MIC: 1 µg/mL (≈ 2.03 µM)
[2]; isolate SA24, experiment II
  MIC: 4 µg/mL (≈ 8.12 µM)
